According to ChEMBL document CHEMBL1201862, “PubChem BioAssay data set” (2004):
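Cultured in 96-well plates, cells were exposed to test compound for 48 hours across five concentrations. At the GI50, growth is halved.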 Active and inactive are the calls of the source. No stated cut-off is given here; in the data, active = GI50 up to about 1.1 µM and inactive = higher.

How the values were obtained:
Assay in all cases: DTP human tumour cell line panel, 48 h
RXF 631 = tested on: RXF 631
HOP-18 = tested on: HOP-18
DLD-1 = tested on: DLD-1
DMS-273 = tested on: DMS-273
XF498 = tested on: XF498
KM-20L2 = tested on: KM-20L2
T47D = tested on: T47D
BT-549 = tested on: BT-549

SMILES	GI50 (RXF 631)	GI50 (HOP-18)	GI50 (DLD-1)	GI50 (DMS-273)	GI50 (XF498)	GI50 (KM-20L2)	GI50 (T47D)	GI50 (BT-549)
C=CC1(C)CC(=O)C2(O)C(C)(O1)C(OC(C)=O)C(O)C1C(C)(C)CCC(O)C12C (stereo unspecified)	> 100 µM (inactive)	41.3 µM (inactive)	> 150 µM (inactive)	> 139 µM (inactive)	61.8 µM (inactive)	110 µM (inactive)	–	–
C=CC(=O)N1C/C(=C\c2ccccc2)C(=O)/C(=C/c2ccccc2)C1	–	3.24 µM (inactive)	0.458 µM (active)	0.668 µM (active)	1.7 µM (inactive)	1.66 µM (inactive)	3.75 µM (inactive)	1.71 µM (inactive)
CCCCCCCCCCCCCC(=O)NO	10.9 µM (inactive)	34.4 µM (inactive)	13.2 µM (inactive)	14.3 µM (inactive)	24.4 µM (inactive)	7.64 µM (inactive)	–	1.16 µM (inactive)
O=[N+]([O-])c1c(/C=N/Nc2ccccc2)oc(-c2ccc3c(c2)OCO3)c1-c1ccc2c(c1)OCO2	65.8 µM (inactive)	–	5.73 µM (inactive)	–	2.89 µM (inactive)	2.24 µM (inactive)	–	–
C=C(C)[C@H]1CC[C@@]2(C)C(C1)[C@H](C)CC[C@@H]2O (stereo partly specified)	> 100 µM (inactive)	> 100 µM (inactive)	> 100 µM (inactive)	> 100 µM (inactive)	> 100 µM (inactive)	> 100 µM (inactive)	–	–
Cc1cnc2c(c1)C(=O)C1=C(OC(C)(C)CC1O)C2=O (stereo unspecified)	> 10 µM (inactive)	15.8 µM (inactive)	16 µM (inactive)	11.9 µM (inactive)	19.5 µM (inactive)	17.7 µM (inactive)	–	–
NC1=C(NC(=O)Cc2ccc(F)cc2)C(=O)c2ccccc2C1=O	> 60.4 µM (inactive)	–	> 33.3 µM (inactive)	33.1 µM (inactive)	> 78.7 µM (inactive)	> 100 µM (inactive)	–	–
C=CCNC1=NC(=O)C(CC(=O)Nc2ccc([N+](=O)[O-])cc2[N+](=O)[O-])S1 (stereo unspecified)	> 100 µM (inactive)	> 100 µM (inactive)	> 100 µM (inactive)	> 100 µM (inactive)	> 100 µM (inactive)	> 100 µM (inactive)	–	–
Cc1nc2ccccc2c(=O)n1/N=C(\N=N\c1ccccc1Cl)c1ccccc1	–	27.5 µM (inactive)	29.1 µM (inactive)	31.6 µM (inactive)	21.1 µM (inactive)	21.9 µM (inactive)	–	–
CC(C)(C)OC(=O)N1N=NC2C3OC(CC3=O)C21 (stereo unspecified)	> 100 µM (inactive)	> 100 µM (inactive)	> 100 µM (inactive)	> 100 µM (inactive)	–	> 100 µM (inactive)	–	–
O=C(OCC1CO1)c1cccs1 (stereo unspecified)	> 100 µM (inactive)	–	> 100 µM (inactive)	> 100 µM (inactive)	> 100 µM (inactive)	> 100 µM (inactive)	–	–
CC1=C(C(=O)Nc2ccccc2)C(c2cc(Cl)cc(Cl)c2)C(C(=O)Nc2ccccc2)=C(C)N1	18 µM (inactive)	12.5 µM (inactive)	4.14 µM (inactive)	10.2 µM (inactive)	13.4 µM (inactive)	9.06 µM (inactive)	–	–
CSc1ccc(C2OC(=O)c3ccccc32)c2ccccc12 (stereo unspecified)	> 100 µM (inactive)	40.6 µM (inactive)	86.5 µM (inactive)	–	61.8 µM (inactive)	67 µM (inactive)	–	–
CNC(=S)NNC(=O)c1c(C)nc2sccn12	> 100 µM (inactive)	0.414 µM (active)	> 100 µM (inactive)	> 100 µM (inactive)	> 100 µM (inactive)	> 100 µM (inactive)	–	–
Cc1ccccc1-c1c(N)nc(N)nc1C(=O)Nc1nccs1	> 100 µM (inactive)	> 100 µM (inactive)	> 100 µM (inactive)	> 100 µM (inactive)	> 100 µM (inactive)	> 100 µM (inactive)	–	–
COC(C(=O)NCCCCNC(=O)C(OC)c1ccccc1)c1ccccc1 (stereo unspecified)	> 100 µM (inactive)	> 100 µM (inactive)	> 100 µM (inactive)	> 100 µM (inactive)	> 100 µM (inactive)	> 100 µM (inactive)	–	–
COc1cc(/C=C\c2ccc(O)cc2)cc(OC)c1OC	–	22.3 µM (inactive)	> 100 µM (inactive)	0.35 µM (active)	9.98 µM (inactive)	33.3 µM (inactive)	–	–
Cn1cnc([N+](=O)[O-])c1Sc1nc2ccccc2s1	4.84 µM (inactive)	0.286 µM (active)	5.07 µM (inactive)	1.36 µM (inactive)	–	10.4 µM (inactive)	–	–
CC12CCC(CC1)C(C)(C)O2 [EUCALYPTOL]	> 100 µM (inactive)	–	25.9 µM (inactive)	3.56 µM (inactive)	2.16 µM (inactive)	38.8 µM (inactive)	–	–
